Measurements: the supplement of paper PMC11451515

System: NOMO1
Assay: cell viability relative to DMSO control; higher = less cytotoxic
Conditions: 48 h
In short: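 In 1536-well plates, 5 μl of leukemia cells were seeded per well: 500 cells/well for NOMO1 or SEM and 1000 cells/well for P12-Ichikawa. Each line had first been adapted for at least four passages in each medium. Library compounds in DMSO were pin-dosed at 11 threefold concentrations between 47 μM and 0.79 nM, and CellTiter-Glo One luminescence was read after 48 h at 37°C. Viability is a per-plate percentage relative to DMSO wells, with cell-free wells as background.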

[1] = HPLM + 10% dialyzed FBS, 0.000781 µM
[2] = HPLM + 10% dialyzed FBS, 0.00234 µM
[3] = HPLM + 10% dialyzed FBS, 0.00702 µM
[4] = HPLM + 10% dialyzed FBS, 0.0211 µM
[5] = HPLM + 10% dialyzed FBS, 0.0632 µM
[6] = HPLM + 10% dialyzed FBS, 0.19 µM
[7] = HPLM + 10% dialyzed FBS, 0.569 µM
[8] = HPLM + 10% dialyzed FBS, 1.71 µM
[9] = HPLM + 10% dialyzed FBS, 5.12 µM
[10] = HPLM + 10% dialyzed FBS, 15.4 µM
[11] = HPLM + 10% dialyzed FBS, 46.1 µM
[12] = RPMI 5 mM glucose + 10% FBS, 0.000781 µM
[13] = RPMI 5 mM glucose + 10% FBS, 0.00234 µM
[14] = RPMI 5 mM glucose + 10% FBS, 0.00702 µM
[15] = RPMI 5 mM glucose + 10% FBS, 0.0211 µM
[16] = RPMI 5 mM glucose + 10% FBS, 0.0632 µM
[17] = RPMI 5 mM glucose + 10% FBS, 0.19 µM
[18] = RPMI 5 mM glucose + 10% FBS, 0.569 µM
[19] = RPMI 5 mM glucose + 10% FBS, 1.71 µM
[20] = RPMI 5 mM glucose + 10% FBS, 5.12 µM
[21] = RPMI 5 mM glucose + 10% FBS, 15.4 µM
[22] = RPMI 5 mM glucose + 10% FBS, 46.1 µM
[23] = RPMI 5 mM glucose + 10% dialyzed FBS, 0.000781 µM
[24] = RPMI 5 mM glucose + 10% dialyzed FBS, 0.00234 µM
[25] = RPMI 5 mM glucose + 10% dialyzed FBS, 0.00702 µM
[26] = RPMI 5 mM glucose + 10% dialyzed FBS, 0.0211 µM
[27] = RPMI 5 mM glucose + 10% dialyzed FBS, 0.0632 µM
[28] = RPMI 5 mM glucose + 10% dialyzed FBS, 0.19 µM
[29] = RPMI 5 mM glucose + 10% dialyzed FBS, 0.569 µM
[30] = RPMI 5 mM glucose + 10% dialyzed FBS, 1.71 µM
[31] = RPMI 5 mM glucose + 10% dialyzed FBS, 5.12 µM
[32] = RPMI 5 mM glucose + 10% dialyzed FBS, 15.4 µM
[33] = RPMI 5 mM glucose + 10% dialyzed FBS, 46.1 µM

Row | SMILES | cell viability [1] [%] | cell viability [2] [%] | cell viability [3] [%] | cell viability [4] [%] | cell viability [5] [%] | cell viability [6] [%] | cell viability [7] [%] | cell viability [8] [%] | cell viability [9] [%] | cell viability [10] [%] | cell viability [11] [%] | cell viability [12] [%] | cell viability [13] [%] | cell viability [14] [%] | cell viability [15] [%] | cell viability [16] [%] | cell viability [17] [%] | cell viability [18] [%] | cell viability [19] [%] | cell viability [20] [%] | cell viability [21] [%] | cell viability [22] [%] | cell viability [23] [%] | cell viability [24] [%] | cell viability [25] [%] | cell viability [26] [%] | cell viability [27] [%] | cell viability [28] [%] | cell viability [29] [%] | cell viability [30] [%] | cell viability [31] [%] | cell viability [32] [%] | cell viability [33] [%]
1 | Cn1c(=O)c2c(ncn2C)n(C)c1=O.O=C(O)CC(O)(CC(=O)O)C(=O)O | 118 | 106 | 123 | 133 | 105 | 114 | 100 | 104 | 98.9 | 86 | 109 | 95.4 | 98.9 | 107 | 101 | 115 | 104 | 106 | 106 | 101 | 91.2 | 93.8 | 93.8 | 113 | 109 | 106 | 114 | 107 | 119 | 98.6 | 97.3 | 89.2 | 85.4
2 | COC[C@H]1OC(=O)C2=COC3=C2[C@@]1(C)\C4=C(C5CCC(=O)[C@@]5(C)C[C@H]4OC(C)=O)/C3=O (stereo partly specified) | 84.5 | 111 | 107 | 36.5 | 111 | 114 | 104 | 114 | 108 | 95 | 102 | 90.1 | 92 | 92.2 | 19.6 | 98.7 | 98.3 | 100 | 91.8 | 93.6 | 91.8 | 107 | 82 | 85.2 | 95.7 | 47.2 | 93.3 | 94.1 | 90.9 | 94.6 | 91.5 | 87.5 | 87.6
3 | CN(CC#C)C/C1=C/C2=CC=CC=C2OC3=CC=CC=C13 | 82.4 | 98.5 | 91.5 | 89.2 | 98.9 | 91.2 | 85.2 | 70.4 | 82.3 | 65.1 | 64 | 81.3 | 85.1 | 82.2 | 94.4 | 86.3 | 77.5 | 92.6 | 81.3 | 80 | 85.1 | 75.5 | 89.1 | 81.7 | 83.8 | 87 | 91.5 | 78.4 | 81.1 | 84.4 | 93.6 | 87.1 | 80.6
4 | COc1ccc(-c2cc3nccn3c(Nc3ncccc3C(N)=O)n2)cc1OC | 125 | 111 | 107 | 117 | 124 | 111 | 110 | 96.6 | 109 | 89 | 93 | 90 | 95.3 | 118 | 107 | 99.7 | 111 | 95 | 103 | 102 | 92.7 | 103 | 106 | 106 | 113 | 95.2 | 116 | 107 | 106 | 105 | 107 | 109 | 101
5 | COc1cc2c(cc1OC)C1CC(=O)C(CC(C)C)CN1CC2 (stereo unspecified) |  |  |  |  |  |  |  |  |  |  |  | 116 | 106 | 106 | 104 | 134 | 117 | 116 | 104 | 113 | 113 | 103 | 117 | 133 | 109 | 115 | 148 | 124 | 128 | 121 | 115 | 110 | 125
6 | COc1c(C)cnc(Cn2cnc3c(Cl)nc(N)nc32)c1C | 108 | 112 | 138 | 120 | 151 | 129 | 80.8 | 36.7 | 19.8 | 18.2 | 14.3 | 117 | 112 | 115 | 139 | 129 | 119 | 91.7 | 26.5 | 18.6 | 14.3 | 15.7 | 119 | 122 | 121 | 132 | 128 | 101 | 90.1 | 34.9 | 18.2 | 18 | 20.2
7 | c1cncc(CN2CCC(n3ncc4c(N5CCOCC5)nc(-c5ccc6[nH]ccc6c5)nc43)CC2)c1 | 92.1 | 107 | 92.5 | 94.8 | 84.4 | 89.1 | 78.6 | 72.7 | 60.1 | 44 | 35 | 88.4 | 80.4 | 88.1 | 92.7 | 87.8 | 82.2 | 83.6 | 82.8 | 80.5 | 49.3 | 15.7 | 87.3 | 83.9 | 96.4 | 97.7 | 86.2 | 85.2 | 69.2 | 70.4 | 71.2 | 46.6 | 20
8 | C=CC(=O)Nc1cccc(Oc2nc(Nc3ccc(N4CCN(C)CC4)cc3)ncc2Cl)c1 | 93.3 | 110 | 119 | 125 | 131 | 112 | 106 | 97.2 | 88.3 | 84.9 | 135 |  |  |  |  |  |  |  |  |  |  |  |  |  |  |  |  |  |  |  |  |  | 
9 | CC1=C(/C=C/C(C)=C/C=C/C(C)=C/C=C/C=C(C)/C=C/C=C(C)/C=C/C2=C(C)CCCC2(C)C)C(C)(C)CCC1 | 115 | 110 | 108 | 104 | 104 | 107 | 100 | 98.2 | 118 | 92.9 | 98.2 | 119 | 112 | 110 | 111 | 108 | 108 | 99.3 | 101 | 113 | 102 | 95.5 | 101 | 113 | 129 | 108 | 112 | 111 | 107 | 117 | 114 | 95.1 | 90.3
10 | CN(c1ncccc1CNc1nc(Nc2ccc3c(c2)CC(=O)N3)ncc1C(F)(F)F)[S+](C)(=O)[O-] |  |  |  |  |  |  |  |  |  |  |  | 112 | 113 | 115 | 105 | 116 | 116 | 99.3 | 103 | 97.7 | 93.9 | 18.7 | 104 | 107 | 116 | 106 | 117 | 117 | 124 | 104 | 114 | 86.5 | 20.6
11 | CCCCCOC(=O)NC\1=N\C(=O)N(\C=C1F)[C@@H]2O[C@H](C)[C@@H](O)[C@H]2O | 114 | 111 | 97 | 99.7 | 95.6 | 106 | 92.9 | 98.7 | 93.8 | 72.8 | 81.4 | 90.8 | 92.6 | 97.9 | 90.8 | 90.7 | 102 | 91.2 | 87.9 | 86.4 | 85 | 83.3 | 99.2 | 105 | 106 | 105 | 103 | 99.4 | 101 | 109 | 92 | 73.8 | 92.5
12 | CC1(C)CC(=O)c2c(C(F)(F)F)nn(-c3ccc(C(N)=O)c(NC4CCC(O)CC4)c3)c2C1 (stereo unspecified) | 83.4 | 77.1 | 69 | 72.5 | 96.9 | 58.7 | 16 | 14.1 | 15.1 | 15.6 | 78.3 | 86.5 | 81.8 | 82.1 | 84.2 | 82.2 | 47.7 | 12.5 | 9.32 | 8.93 | 8.3 | 75.8 | 91.7 | 94.1 | 102 | 94.5 | 81.6 | 48.9 | 17.1 | 12.1 | 12.2 | 11.6 | 80.6
13 | COc1nccc(-c2c(-c3ccc(F)cc3)ncn2C2CCNCC2)n1 | 95.7 | 121 | 124 | 127 | 120 | 121 | 119 | 94.4 | 107 | 78.3 | 49.4 | 45.8 | 120 | 115 | 101 | 113 | 107 | 100 | 112 | 96.7 | 97.6 | 74 | 44.9 | 119 | 97.3 | 110 | 106 | 104 | 108 | 104 | 101 | 99.1 | 68
14 | CC1(C)O[C@@H]2C[C@H]3[C@@H]4CCC5=CC(=O)C=C[C@]5(C)[C@@]4(F)[C@@H](O)C[C@]3(C)[C@]2(C(=O)CO)O1 | 110 | 119 | 112 | 111 | 117 | 108 | 90.6 | 105 | 86.3 | 48.4 | 25.8 | 98.3 | 112 | 96.1 | 111 | 115 | 121 | 117 | 109 | 97.7 | 33.2 | 18.1 | 106 | 112 | 111 | 127 | 122 | 117 | 113 | 110 | 99.8 | 105 | 32.2
15 | Cc1cn2c(-c3cn[nH]c3)cnc2c(Nc2ccc(C(=O)N3CCNCC3)cc2F)n1 | 109 | 102 | 114 | 107 | 96.5 | 100 | 112 | 82.7 | 91.2 | 70 | 34 | 105 | 91.6 | 101 | 88 | 88.3 | 88 | 89.2 | 85.3 | 86.2 | 78.7 | 36.1 | 89.2 | 93 | 93.8 | 98.1 | 88.7 | 98.8 | 92.5 | 93.1 | 80.5 | 62.5 | 29.9
